Test results published in patent publication US20220249599A1, “TREATMENT OF IMPLANTS WITH ENGINEERED ANTIMICROBIAL AMPHIPHILIC PEPTIDES” (priority 2018, published 2022).
Where two headings read alike, the source gives them in different places. Ends that are not written are not given here.

Key:
[1] = tested on: Klebsiella pneumoniae (n = 101); assay type: cell-based
Procedure: (§1) The clinical isolates were obtained from USA hospitals. […] Plates were incubated at 35° C. overnight.

[2] = tested on: Acinetobacter spp. (n = 104); assay type: cell-based
Procedure: as §1

[3] = tested on: Pseudomonas aeruginosa (n = 109); assay type: cell-based; conditions: P. aeruginosa colistin-resistant (COL^R) isolates, n 8
Procedure: as §1

[4] = tested on: Enterococcus faecium (n = 104); experiment: microbe, parasite or virus in culture; conditions: n = 104
Procedure: Comparator antibiotics were supplied by Micromyx, and stock solutions were prepared on the first day of testing using solvents recommended by CLSI (1). Stock solutions of all compounds were made at 40× the final testing concentration and stored at −80° C. prior to testing. Information regarding compound source, catalog and lot number, testing concentrations and drug diluent for the comparators and test agent are detailed below in Table 3.
The test organisms evaluated in this study consisted of clinical isolates from the Micromyx Repository and reference isolates from the American Type Culture Collection (ATCC; Manassas, Va.). The clinical isolates were obtained from USA hospitals. Upon initial receipt at Micromyx, the organisms were sub-cultured onto an appropriate agar medium. Following incubation, colonies were harvested from these plates and cell suspensions prepared and frozen at −80° C. with a cryoprotectant. Prior to testing, the isolates were streaked from frozen vials onto Trypticase Soy Agar with 5% sheep blood (Becton Dickenson [BD]; Sparks, MD; Lot Nos. 7173618, 7166759, 7208688, 72144895, 7228505 and Remel Lenexa, Kans. Lot No. 212574). Plates were incubated at 35° C. overnight.
Mueller Hinton II broth (MHB II; BD; Lot Nos. 6258541 and 7143896) was used for MIC testing of aerobic organisms.
MIC values were determined using a broth microdilution procedure described by CLSI (1, 3). Automated liquid handlers (Multidrop 384, Labsystems, Helsinki, Finland; Biomek 2000 and Biomek FX, Beckman Coulter, Fullerton Calif.) were used to conduct serial dilutions and liquid transfers.
To prepare the drug mother plates, which would provide the serial drug dilutions for the replicate daughter plates, the wells of columns 2-12 of standard 96-well microdilution plates (Costar 3795) were filled with 150 µl of the designated diluent for each row of drug. The test articles and comparator compounds ([…] at 40× the highest concentration to be tested) were dispensed into the appropriate wells in column 1. The Biomek 2000 was then used to make 2-fold serial dilutions in the mother plates from column 1 through column 11. The wells of Column 12 contained no drug and served as the organism growth control wells for the assay.
The daughter plates were loaded with […] per well of MHB II using the Multidrop 384. The daughter plates were completed on the Biomek FX instrument which transferred 5 µL of drug solution from each well of a mother plate to the corresponding well of each daughter plate in a single step. A standardized inoculum of each test organism was prepared per CLSI methods (1). The inoculum for each organism was dispensed into sterile reservoirs divided by length (Beckman Coulter), and the Biomek 2000 was used to inoculate the plates. Daughter plates were placed on the Biomek 2000 work surface in reverse orientation so that inoculation took place from low to high drug concentration.
Plates were stacked 3-4 high, covered with a lid on the top plate, placed in plastic bags, and incubated at 35° C. for 16 to 20 hrs. Following incubation, the microplates were removed from the incubator and viewed from the bottom using a plate viewer. […] The MIC was read and recorded as the lowest concentration of drug that inhibited visible growth of the organism.
Clinical breakpoints to determine percent resistance within a given organism group were obtained from CLSI (3), with the exception of colistin for K. pneumoniae, Enterobacter spp., and E. coli, which are only available from EUCAST.

[5] = rat; for AUCinf / AUClast / Cmax / Extrapolated / MRTlast / T1/2: Mean; for Tmax: individual animals
Procedure: Male Sprague-Dawley Rats will be received from an approved vendor with a single jugular vein cannula (JVC) and allowed to acclimate to the Test Facility for at least 2 days prior to study start. Animals will be weighed prior to dosing. No fasting will be required.
Intravenous administration will be via 30 minute infusion into a JVC. Following dosing, the catheter will be flushed with ˜0.5 mL saline and tied off to prevent re-access.
Serial blood samples will be collected via jugular vein cannula (JVC) or by another approved method if patency is lost. The final blood samples will be obtained via direct cardiac puncture following inhalation anesthesia.
Blood samples will be collected into K2EDTA tubes and stored on wet ice. Whole blood will be processed to plasma by centrifugation (3500 rpm at 5° C.) within 30 minutes of collection. Plasma samples will be transferred into 96 well plates (matrix tubes) and stored at −80° C. until analysis. Administered doses will be determined gravimetrically.
Prior to extraction, a known concentration of a mass-adjusted internal standard (IS) will be added to assess recovery and allow for quantitation. Purified samples will be further subjected to high-performance liquid chromatography (HPLC) using C18 300 or 130 angstrom columns prior to MS/MS analysis. Multiple charge states will be observed by MS, so MS/MS will be employed to enable multiple reaction monitoring (MRM) analyses to determine the most MRM transitions with the highest signal-to-noise gain. Compound plasma concentrations will be determined by comparing to and compensating with co-purified IS peak intensity and validated calibrated standard curves.
Pharmacokinetic parameters will be calculated using non-compartmental methods as implemented in the Phoenix® WinNonlin® ver. 6.3 comprehensive TK/PK analysis software program (Pharsight Corporation; Mountain View, Calif.) using an IV infusion model. Pharmacokinetic analysis will be conducted using a 30-minute intravenous infusion time. Therefore, 30 minutes will be added to each sample time point postdose to obtain nominal time for TK analysis. Nominal times and dosage levels will be used for all calculations. Values below the lower limit of quantitation (BLQ) will be assigned a value of zero for the pharmacokinetic calculations. Microsoft® Excel® 2013 will be used for receipt of bioanalytical data, minor formatting, including setting BLQ values to “0”, transfer into WinNonlin® for PK analysis, and calculation of the mean when an approximated value will be excluded. All plasma concentration data from all animals will be included in the analysis. Graphical presentations will be performed using Microsoft® Excel® 2013.

With “RRWVRRVRRVWRRVVRVVRRWVRR-NH2 (C-terminus assumed) [SEQ ID NO: 1]” the MIC90 ([1]; K. pneumoniae colistin-resistant (COL^R) isolates, n 28) was 16 µg/mL, the “Mode (MIC)” value ([1]; n = 101) was 8 µg/mL and the MIC90 [2] was 4 µg/mL. The “Mode (MIC)” value [2] was 4 µg/mL, the MIC90 ([2]; Acinetobacter colistin-resistant (COL^R) isolates, n 21) was 16 µg/mL and the MIC90 [3] was 16 µg/mL. It also gave an MIC50 [4] of 0.5 µg/mL, an MIC90 [4] of 1 µg/mL and an MIC range [4] of 0.25 to 2 µg/mL. The “Mode (MIC)” value [4] was 1 µg/mL, the AUCinf ([5]; Group 4 IV infusion 10 mg/kg) was 80486 ng·h/mL and the AUClast ([5]; Group 4 IV infusion 10 mg/kg) was 80339 ng·h/mL. The Cmax ([5]; Group 4 IV infusion 10 mg/kg) was 67192 ng/mL, the Extrapolated ([5]; Group 4 IV infusion 10 mg/kg) was 0.186% and the MRTlast ([5]; Group 4 IV infusion 10 mg/kg) was 1.18 h. The T1/2 ([5]; Group 4 IV infusion 10 mg/kg) was 4.07 h, the Tmax ([5]; Group 4 IV infusion 10 mg/kg) was 0.5333 h and the AUCinf ([5]; IV infusion 1 mg/kg) was 787 ng·h/mL. For the same substance, the AUClast ([5]; IV infusion 1 mg/kg) was 757 ng·h/mL, the Cmax ([5]; IV infusion 1 mg/kg) was 1271 ng/mL and the Extrapolated ([5]; IV infusion 1 mg/kg) was 3.28%. It also gave an MRTlast ([5]; IV infusion 1 mg/kg) of 1.67 h, a T1/2 ([5]; IV infusion 1 mg/kg) of 6.16 h and a Tmax ([5]; IV infusion 1 mg/kg) of 0.5333 h. It also gave an AUCinf ([5]; IV infusion 5 mg/kg) of 25791 ng·h/mL, an AUClast ([5]; IV infusion 5 mg/kg) of 25683 ng·h/mL and a Cmax ([5]; IV infusion 5 mg/kg) of 30409 ng/mL. The Extrapolated ([5]; IV infusion 5 mg/kg) was 0.424%, the MRTlast ([5]; IV infusion 5 mg/kg) was 1.03 h and the T1/2 ([5]; IV infusion 5 mg/kg) was 5.43 h. The Tmax ([5]; IV infusion 5 mg/kg) was 0.5333 h.
